13 molecules from patent US7244730B2, “2-iminopyrrolidine derivatives” (Eisai Co., Ltd, priority 2001, dated 2007) can be followed below.

The IC50 is the midpoint of a concentration-inhibition curve.

One assay deals with T1, thrombin receptor (Homo sapiens, UniProt P25116).
T1 construct: centrifuged at 40,000 g for 60 minutes to yield platelet membrane; from tissue; host or cells: platelet membrane prepared from donor blood (platelet rich plasma)
T1 sequence (P25116 22-425): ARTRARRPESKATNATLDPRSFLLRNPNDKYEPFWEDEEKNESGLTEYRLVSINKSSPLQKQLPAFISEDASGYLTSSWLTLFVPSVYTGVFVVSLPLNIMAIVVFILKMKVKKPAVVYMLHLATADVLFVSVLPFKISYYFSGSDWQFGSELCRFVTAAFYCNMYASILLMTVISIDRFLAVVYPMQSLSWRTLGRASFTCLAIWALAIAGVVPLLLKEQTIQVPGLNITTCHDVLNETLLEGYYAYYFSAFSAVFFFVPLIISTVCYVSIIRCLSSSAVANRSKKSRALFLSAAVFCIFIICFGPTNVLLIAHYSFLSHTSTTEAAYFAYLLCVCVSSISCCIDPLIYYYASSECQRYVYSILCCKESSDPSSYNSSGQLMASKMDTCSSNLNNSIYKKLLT
Briefly: Receptor binding assay ([3H] high affinity TRAP, platelet membrane). Here is the method:
Blood was sampled from a healthy adult who had taken no drugs for one week, and 3.8% citric acid (a ratio of 1:9 with respect to the blood) was added as an anticoagulant. The mixture was then centrifuged at 100 g for 10 minutes at room temperature to yield platelet rich plasma (PRP). The platelet precipitate obtained by centrifuging the PRP was homogenized with a Dounce homogenizer, and then centrifuged at 40,000 g for 60 minutes to yield platelet membrane. The platelet membrane was suspended in a solution prepared by adding DMSO (dimethyl sulfoxide) at 1% concentration to Buffer 1: a 50 mM Tris-HCl buffer containing 10 mM MgCl2 and 1 mM EGTA (ethylene glycol tetraacetic acid), and the suspension was stored at −80° C. Bovine albumin and DMSO were added to Buffer 1 at 0.1% and 20%, respectively, to make preparation solutions for the test compound. The test compounds (20 μl) diluted at various concentrations with the preparation solutions were added to a 96-well multiscreen plate. […] After then adding 100 μl of the previously prepared platelet membrane suspension (0.4 mg/ml) and mixing, incubation was performed at 37° C. for 1 hour. The reaction mixture was suction filtered and then rinsed 3 times with 200 μl of Buffer 1. Next, 30 μl of liquid scintillator was added for measurement of the radioactivity of the plate using a Top Counter (Packard), the value of the radioactivity in the presence of the test compound minus non-specific binding portion was divided by the specific binding value (the value of the binding in the absence of the compound minus the non-specific binding portion) to determine the binding ratio, from which the IC50 value was calculated. The non-specific binding was the value obtained with addition of 10 μM of high affinity TRAP.

Assay [1] deals with platelet rich plasma (PRP), thrombin-induced platelet aggregation. Briefly: Inhibitory effects on platelet aggregation using platelet rich plasma. The format is cell-based. Particulars: Homo sapiens, 0.1 h, read-out: Thr IC50. As for the experimental part: [Inhibitory Effects on Platelet Aggregation Using Platelet Rich Plasma]
Blood was sampled from a healthy adult who had taken no drugs for one week, and 3.8% citric acid (a ratio of 1:9 with respect to the blood) was added as an anticoagulant. The mixture was then centrifuged at 100 g for 10 minutes at room temperature to yield platelet rich plasma (PRP). The PRP-removed blood was further centrifuged at 1000 g for 10 minutes to yield platelet poor plasma (PPP). The number of platelet was counted using a multi-parameter automatic hemocyte counter (K4500, Sysmex), and the PRP was diluted to approximately 300,000/μl with the PPP. The platelet aggregation activity was determined in the following manner using an Aggregometer (MC Medical). GPRP-NH2 (final concentration 1 mM, 25 μl) was added as a fibrin polymerization inhibitor to the PRP (175 μl), after which Ca-free Tyrode solution (control) or the test compound suspension (25 μl) at different concentrations was added, incubation was performed at 37° C. for 3 minutes and then 25 μl of thrombin at the minimum concentration required to produce maximum aggregation (final concentration: optimum concentration among 0.5–1.5 units/ml) was added, for initiation of platelet aggregation. PRP and Ca-free Tyrode solution (control) or the preparation solutions at various concentrations were pre-incubated at 37° C. for 60 minutes, prior to the platelet aggregation reaction in some experiments. After addition of thrombin, the aggregation reaction was examined for 6 minutes and the areas under the aggregation curves were compared to determine the inhibition ratio, from which the IC50 value was calculated.

The subject of assay [2] is Vascular smooth muscle cells (rSMC). Briefly: Rat smooth muscle cell proliferation assay. In kind it is cell-based. Particulars: 48 h; male SD rat aorta rSMC; thrombin 0.1 unit/ml; 2 days; MTT, OD 590 nm; read-out: Rat SMC IC50. Here is the method: [Rat Smooth Muscle Cell Proliferation Assay]
Vascular smooth muscle cells (rSMC) were isolated from male SD rat aorta by the explant method. DMEM medium (Sigma) containing 10% fetal bovine serum (GibcoBRL), streptomycin and penicillin was used as the proliferation medium, and subculture was carried out at 37° C. in the presence of 5% CO2. Culture was initiated after adding 100 μl of rSMC suspension in proliferation medium at a concentration of 1×10^4 cells/ml, to a 96-well plate. After 3 days, cells were rinsed twice with 100 μl of DMEM medium, the medium was exchanged with 100 μl of DMEM medium containing 0.1% albumin (starvation medium), and serum starvation was initiated. The medium was exchanged two days after the serum starvation, 80 μl of starvation medium and 10 μl of the test compound diluted to different concentrations with the starvation medium were added, and then 10 μl of thrombin dissolved in the starvation medium (final concentration: 0.1 unit/ml) was added prior to further incubation for 2 days.
Upon adding 20 μl of MTT (3-[4,5-dimethylthiazol-2-yl]-2,5-diphenyltetrazolium bromide) dissolved in DPBS to 7.5 mg/ml, incubation was continued for 4 hours. The medium was removed by suction, 50 μl of a 10% SDS/0.029% ammonia solution was added, and the mixture was allowed to stand for 2 hours in a CO2 incubator for complete lysis of the cells. As an index of cell proliferation, the OD 590 nm was measured using a plate reader (EL340, BIO-TEK Instruments Inc.), and the control OD value (OD value in the absence of the test compound) minus the OD value in the presence of the test compound was divided by the control OD value minus the blank OD value (OD value without thrombin stimulation) to determine the inhibition ratio, from which the IC50 value was calculated.

Where [3] appears, read: platelet membrane of healthy adult, 25 nM [3H] high affinity TRAP, 37° C., 1 hour, read-out: RBA IC50.
The mark [4] stands for this setting: PRP of healthy adult, aggregation initiated with thrombin (0.5–1.5 units/ml), area under aggregation curve, 6 minutes.

Each structure is given as a SMILES string. Where a name gives a salt, the structure may show the parent alone. Read-outs that look alike come from different tables or passages of the source.

With `CCOc1cc2c(c(F)c1OCC)C(=N)N(CC(=O)c1cc3c(c(C(C)(C)C)c1)OCCN3CC#N)C2` [Example 5, {8-tert-Butyl-6-[2-(5,6-diethoxy-7-fluoro-1-imino-1,3-dihydro-isoindol-2-yl)acetyl]-2,3-dihydrobenzo[1,4]oxazin-4-yl}acetonitrile hydrobromide], the IC50 at thrombin receptor (setting [3]) turned out to be 17 nM; in assay [1] (setting [4]), 290 nM; in assay [2], 6.1 nM.
`CCOc1cc2c(c(F)c1OCC)C(=N)N(CC(=O)c1cc(N(C)C)c(OC)c(C(C)(C)C)c1)C2` [Example 6, 1-(3-tert-Butyl-5-dimethylamino-4-methoxy-phenyl)-2-(5,6-diethoxy-7-fluoro-1-imino-1,3-dihydro-isoindol-2-yl)-ethanone hydrobromide]: the IC50 on thrombin receptor (setting [3]) came out at 24 nM; in assay [1] (setting [4]) it was 72 nM; in assay [2], 19 nM.
For `CCOc1cc2c(c(F)c1OCC)C(=N)N(CC(=O)c1cc(N3CCOCC3)c(OC)c(C(C)(C)C)c1)C2` [Example 7], the IC50 is 26 nM at thrombin receptor (setting [3]), 41 nM in assay [1] (setting [4]) and 32 nM in assay [2].
For the molecule `CCOc1cc2c(c(F)c1OCC)C(=N)N(CC(=O)c1cc(N3CCC(O)CC3)c(OC)c(C(C)(C)C)c1)C2` [Example 8, 1-[3-tert-Butyl-5-(4-hydroxy-piperidin-1-yl)-4-methoxyphenyl]-2-(5,6-diethoxy-7-fluoro-1-imino-1,3-dihydro-isoindol-2-yl)-ethanone hydrobromide], the IC50 is 29 nM at thrombin receptor (setting [3]), 84 nM in assay [1] (setting [4]) and 23 nM in assay [2].
Regarding `CCOc1cc2c(c(F)c1OCC)C(=N)N(CC(=O)c1cc(NCC#N)c(OC)c(C(C)(C)C)c1)C2` [Example 10, (3-tert-Butyl-5-[2-(5,6-diethoxy-7-fluoro-1-imino-1,3-dihydro-isoindol-2-yl)-acetyl]-2-methoxy-phenylamino}-acetonitrile hydrobromide], the values for the IC50 (on thrombin receptor (setting [3]); in assay [1] (setting [4]); in assay [2]) were 26 nM, 24 nM and 34 nM, respectively.
Taken in the same sequence, the figures for `CCOc1cc2c(c(F)c1OCC)C(=N)N(CC(=O)c1cc(N3CCN(CC#N)CC3)c(OC)c(C(C)(C)C)c1)C2` [Example 11, (4-{3-tert-Butyl-5-[2-(5,6-diethoxy-7-fluoro-1-imino-1,3-dihydro-isoindol-2-yl)-acetyl]-2-methoxy-phenyl}piperazin-1-yl)-acetonitrile hydrobromide] were 45 nM, 57 nM and 75 nM.
In the case of `CCOc1cc2c(c(F)c1OCC)C(=N)N(CC(=O)c1cc(N3C[C@@H](O)[C@H](OC)C3)c(OC)c(C(C)(C)C)c1)C2` [Example 12, 1-[3-tert-Butyl-5-((3R,4R)-3-hydroxy-4-methoxy-pyrrolidin-1-yl)-4-methoxy-phenyl]-2-(5,6-diethoxy-7-fluoro-1-imino-1,3-dihydro-isoindol-2-yl)-ethanone trifluoroacetate], the IC50 was 45 nM on thrombin receptor (setting [3]), 41 nM in assay [1] (setting [4]) and 21 nM in assay [2].
Take `CCOc1cc2c(c(F)c1OCC)C(=N)N(CC(=O)c1cc(N3CCN(C(C)=O)CC3)c(OC)c(C(C)(C)C)c1)C2` [Example 13, 1-[3-(4-Acetyl-piperazin-1-yl)-5-tert-butyl-4-methoxy-phenyl]-2-(5,6-diethoxy-7-fluoro-1-imino-1,3-dihydro-isoindol-2-yl)ethanone hydrobromide]: the IC50 was 46 nM at thrombin receptor (setting [3]), 45 nM in assay [1] (setting [4]) and 120 nM in assay [2].
As for `CCOc1cc2c(c(F)c1OCC)C(=N)N(CC(=O)c1cc(N3CCN(C(=O)COC)CC3)c(OC)c(C(C)(C)C)c1)C2` [Example 16, 1-{3-tert-Butyl-4-methoxy-5-[4-(2-methoxy-acetyl)piperazin-1-yl]phenyl}-2-(5,6-diethoxy-7-fluoro-1-imino-1,3-dihydro-isoindol-2-yl)-ethanone hydrobromide], the IC50 at thrombin receptor (setting [3]) is 53 nM; in assay [1] (setting [4]), 57 nM; in assay [2], 59 nM.
As for `CCOc1cc2c(c(F)c1OCC)C(=N)N(CC(=O)c1cc(N3C[C@H](OCC)[C@@H](O)C3)c(OC)c(C(C)(C)C)c1)C2` [Example 17, 1-[3-tert-Butyl-5-((3S,4S)-3-ethoxy-4-hydroxy-pyrrolidin-1-yl)-4-methoxy-phenyl]-2-(5,6-diethoxy-7-fluoro-1-imino-1,3-dihydro-isoindol-2-yl)ethanone trifluoroacetate], the results for the IC50 (on thrombin receptor (setting [3]); in assay [1] (setting [4])) were 32 nM and 80 nM, respectively.
For `CCOc1cc2c(c(F)c1OCC)C(=N)N(CC(=O)c1cc(NC(C)C)c(OC)c(C(C)(C)C)c1)C2` [Example 26, 1-(3-tert-Butyl-5-isopropylamino-4-methoxy-phenyl)-2-(5,6-diethoxy-7-fluoro-1-imino-1,3-dihydro-isoindol-2-yl)-ethanone hydrobromide], the IC50 at thrombin receptor (setting [3]) worked out at 17 nM; in assay [1] (setting [4]), 79 nM; in assay [2], 62 nM.
In the case of `CCOc1cc(C(=O)CN2Cc3cc(OCC)c(OCC)c(F)c3C2=N)cc(C(C)(C)C)c1OC` [Example 28, 1-(3-tert-Butyl-5-ethoxy-4-methoxy-phenyl)-2-(5,6-diethoxy-7-fluoro-1-imino-1,3-dihydro-isoindol-2-yl)-ethanone hydrobromide], the IC50 on thrombin receptor (setting [3]) was determined as 26 nM; in assay [1] (setting [4]) it was 44 nM; in assay [2] it was 50 nM.
For the molecule `CCNC(=O)Oc1c(OCC)cc(C(=O)CN2Cc3cc(OCC)c(OCC)c(F)c3C2=N)cc1C(C)(C)C` [Example 29, 2-tert-butyl-4-[2-(5,6-diethoxy-7-fluoro-1-imino-1,3-dihydro-isoindol-2-yl)-acetyl]-6-ethoxy-phenyl ethylcarbamate hydrobromide], the IC50 on thrombin receptor stood at 76 nM; in assay [1], 52 nM; in assay [2], 70 nM.
